Toxic doses and inconclusive results are not listed. How the source made its calls: active means survival T/C of 150% or more; inactive means T/C below 125% in these data.
Tested on: CD2F1 mice, L1210 leukemia ip, survival T/C
Experiment: NCI In Vivo Anticancer Drug Screen. Data for tumor model L1210 Leukemia (intraperitoneal) in CD2F1 (CDF1) mice
Conditions: higher = longer survival
Summary of the method: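 Read-out first: treated-group measurement over vehicle-control measurement, expressed as a ratio. Animals bore a transplanted tumor line and were dosed with compound or vehicle.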

[1] = endpoint: mean survival time, dose: 100.0 mg/kg/injection, schedule: Q01DX001 (ip), vehicle: saline
[2] = endpoint: mean survival time, dose: 200.0 mg/kg/injection, schedule: Q01DX001 (ip), vehicle: saline
[3] = endpoint: mean survival time, dose: 400.0 mg/kg/injection, schedule: Q01DX001 (ip), vehicle: saline
[4] = endpoint: median survival time, dose: 25.0 mg/kg/injection, schedule: Q04DX003 (ip), vehicle: saline with Tween-80
[5] = endpoint: mean survival time, dose: 100.0 mg/kg/injection, schedule: Q04DX003 (ip), vehicle: saline with Tween-80
[6] = endpoint: mean survival time, dose: 200.0 mg/kg/injection, schedule: Q04DX003 (ip), vehicle: saline with Tween-80
[7] = endpoint: mean survival time, dose: 50.0 mg/kg/injection, schedule: Q01DX009 (ip), vehicle: saline with Tween-80
[8] = endpoint: mean survival time, dose: 100.0 mg/kg/injection, schedule: Q01DX009 (ip), vehicle: saline with Tween-80
[9] = endpoint: mean survival time, dose: 200.0 mg/kg/injection, schedule: Q01DX009 (ip), vehicle: saline with Tween-80
[10] = endpoint: mean survival time, dose: 100.0 mg/kg/injection, schedule: Q04DX003 (ip), vehicle: saline
[11] = endpoint: mean survival time, dose: 200.0 mg/kg/injection, schedule: Q04DX003 (ip), vehicle: saline
[12] = endpoint: mean survival time, dose: 100.0 mg/kg/injection, schedule: Q01DX009 (ip), vehicle: saline
[13] = endpoint: mean survival time, dose: 200.0 mg/kg/injection, schedule: Q01DX009 (ip), vehicle: saline
[14] = endpoint: mean survival time, dose: 400.0 mg/kg/injection, schedule: Q01DX009 (ip), vehicle: saline

Measured: T/C

CCOC(=O)/N=C/N(C)C
inactive: [1] 100 % of control | [2] 109 % of control | [3] 103 % of control | [4] 100 % of control | endpoint: median survival time, dose: 50.0 mg/kg/injection, schedule: Q04DX003 (ip), vehicle: saline with Tween-80 100 % of control | endpoint: median survival time, dose: 100.0 mg/kg/injection, schedule: Q04DX003 (ip), vehicle: saline with Tween-80 100 % of control

NC(=O)C(NCc1ccccc1)c1ccccc1 (configuration not stated)
inactive: [5] 94 % of control | [6] 99 % of control

O=C1c2ccccc2C(=O)N1CN1C(=O)c2ccccc2C1=O
inactive: [7] 93 % of control | [8] 92 % of control | [9] 93 % of control

Brc1ccccc1CCc1ccccc1Br
inactive: endpoint: mean survival time, dose: 50.0 mg/kg/injection, schedule: Q04DX003 (ip), vehicle: saline 97 % of control | [10] 95 % of control | [11] 100 % of control

COc1ccc([I+]c2cccc(Cl)c2)cc1Cl
inactive: endpoint: mean survival time, dose: 0.37 mg/kg/injection, schedule: Q01DX009 (ip), vehicle: saline with Tween-80 97 % of control | endpoint: mean survival time, dose: 0.75 mg/kg/injection, schedule: Q01DX009 (ip), vehicle: saline with Tween-80 107 % of control | endpoint: mean survival time, dose: 1.5 mg/kg/injection, schedule: Q01DX009 (ip), vehicle: saline with Tween-80 98 % of control | endpoint: mean survival time, dose: 3.0 mg/kg/injection, schedule: Q01DX009 (ip), vehicle: saline with Tween-80 110 % of control | endpoint: mean survival time, dose: 6.0 mg/kg/injection, schedule: Q01DX009 (ip), vehicle: saline with Tween-80 107 % of control | endpoint: mean survival time, dose: 12.0 mg/kg/injection, schedule: Q01DX009 (ip), vehicle: saline with Tween-80 109 % of control | endpoint: median survival time, dose: 12.5 mg/kg/injection, schedule: Q01DX009 (ip), vehicle: saline with Tween-80 116 % of control | endpoint: median survival time, dose: 25.0 mg/kg/injection, schedule: Q01DX009 (ip), vehicle: saline with Tween-80 116 % of control

Nc1ncnc2c1ncn2C1OC(COP(=O)(O)O)C(O)C1O.[NH-]C1CCCCC1[NH-].[Pt+2] (configuration not stated)
inactive: endpoint: median survival time, dose: 3.12 mg/kg/injection, schedule: Q04DX003 (ip), vehicle: saline 101 % of control | endpoint: median survival time, dose: 6.25 mg/kg/injection, schedule: Q04DX003 (ip), vehicle: saline 108 % of control | endpoint: median survival time, dose: 12.5 mg/kg/injection, schedule: Q04DX003 (ip), vehicle: saline 103 % of control | endpoint: median survival time, dose: 25.0 mg/kg/injection, schedule: Q04DX003 (ip), vehicle: saline 108 % of control | endpoint: median survival time, dose: 50.0 mg/kg/injection, schedule: Q04DX003 (ip), vehicle: saline 112 % of control | endpoint: median survival time, dose: 100.0 mg/kg/injection, schedule: Q04DX003 (ip), vehicle: saline 108 % of control | endpoint: median survival time, dose: 200.0 mg/kg/injection, schedule: Q04DX003 (ip), vehicle: saline 122 % of control

C[CH2][Pb]([CH2]C)([CH2]C)[O]C(=O)C=C1CCCC1
inactive: endpoint: mean survival time, dose: 0.63 mg/kg/injection, schedule: Q01DX009 (ip), vehicle: saline 96 % of control | endpoint: mean survival time, dose: 1.25 mg/kg/injection, schedule: Q01DX009 (ip), vehicle: saline 102 % of control | endpoint: mean survival time, dose: 2.5 mg/kg/injection, schedule: Q01DX009 (ip), vehicle: saline 95 % of control | endpoint: mean survival time, dose: 5.0 mg/kg/injection, schedule: Q04DX003 (ip), vehicle: saline with Tween-80 92 % of control | endpoint: mean survival time, dose: 10.0 mg/kg/injection, schedule: Q04DX003 (ip), vehicle: saline with Tween-80 92 % of control

Cc1ccc([P+](=O)O)cc1Cl
inactive: [10] 102 % of control | [11] 97 % of control | endpoint: mean survival time, dose: 400.0 mg/kg/injection, schedule: Q04DX003 (ip), vehicle: saline 103 % of control

CCOC(=S)SCC(=O)O
inactive: endpoint: mean survival time, dose: 100.0 mg/kg/injection, schedule: Q01DX001 (ip), vehicle: saline with Tween-80 92 % of control | endpoint: mean survival time, dose: 200.0 mg/kg/injection, schedule: Q01DX001 (ip), vehicle: saline with Tween-80 96 % of control

O=C1NC(=O)/C(=C/c2ccccc2)N1
inactive: endpoint: mean survival time, dose: 75.0 mg/kg/injection, schedule: Q04DX003 (ip), vehicle: saline sonified 100 % of control | endpoint: mean survival time, dose: 150.0 mg/kg/injection, schedule: Q04DX003 (ip), vehicle: saline sonified 105 % of control | endpoint: mean survival time, dose: 300.0 mg/kg/injection, schedule: Q04DX003 (ip), vehicle: saline sonified 105 % of control

CCOC(=O)c1c[nH]n(C2OC(CO)C(O)C2O)c1=O (configuration not stated)
inactive: endpoint: median survival time, dose: 45.5 mg/kg/injection, schedule: Q01DX005 (ip), vehicle: saline 96 % of control | endpoint: median survival time, dose: 90.9 mg/kg/injection, schedule: Q01DX005 (ip), vehicle: saline 96 % of control | endpoint: median survival time, dose: 181.9 mg/kg/injection, schedule: Q01DX005 (ip), vehicle: saline 98 % of control

CCOC(=O)c1cc2ccccc2oc1=O
inactive: endpoint: mean survival time, dose: 25.0 mg/kg/injection, schedule: Q01DX009 (ip), vehicle: saline with Tween-80 100 % of control | [7] 97 % of control | [8] 109 % of control

C[N+](C)(C)CC(O)c1ccccc1 (configuration not stated)
inactive: [7] 100 % of control | [8] 105 % of control | [5] 95 % of control | [6] 87 % of control

COC1OC(COS(=O)(=O)c2ccc(C)cc2)C(SC#N)C1OS(=O)(=O)c1ccc(C)cc1 (configuration not stated)
inactive: endpoint: mean survival time, dose: 50.0 mg/kg/injection, schedule: Q01DX001 (ip), vehicle: saline 91 % of control | [1] 89 % of control | [2] 95 % of control | [3] 95 % of control

COc1cc(OC)c(NC(=O)Nc2cccc(SC)c2)cc1Cl
inactive: [7] 92 % of control | [8] 88 % of control

O=C1N(c2ccccc2)SN2C3C=CC(C4CC43)N12 (configuration not stated)
inactive: endpoint: mean survival time, dose: 12.5 mg/kg/injection, schedule: Q04DX002 (ip), vehicle: saline with Tween-80 114 % of control | endpoint: mean survival time, dose: 25.0 mg/kg/injection, schedule: Q04DX002 (ip), vehicle: saline with Tween-80 105 % of control

CCNC(=O)OCc1cn2c(c1COC(=O)NCC)CCC2
inactive: endpoint: mean survival time, dose: 0.78 mg/kg/injection, schedule: Q04DX003 (ip), vehicle: other 101 % of control | endpoint: mean survival time, dose: 1.56 mg/kg/injection, schedule: Q04DX003 (ip), vehicle: other 87 % of control | endpoint: mean survival time, dose: 3.13 mg/kg/injection, schedule: Q04DX003 (ip), vehicle: other 92 % of control | endpoint: mean survival time, dose: 6.25 mg/kg/injection, schedule: Q04DX003 (ip), vehicle: other 92 % of control | endpoint: mean survival time, dose: 12.5 mg/kg/injection, schedule: Q04DX003 (ip), vehicle: other 97 % of control

CC(=O)OC(OC(C)=O)c1ccc([N+](=O)[O-])cc1
inactive: [8] 103 % of control | [5] 105 % of control | [9] 97 % of control | [6] 100 % of control | endpoint: mean survival time, dose: 400.0 mg/kg/injection, schedule: Q01DX009 (ip), vehicle: saline with Tween-80 97 % of control | endpoint: mean survival time, dose: 400.0 mg/kg/injection, schedule: Q04DX003 (ip), vehicle: saline with Tween-80 92 % of control

C=C1C(O)C2(O)OCC34C(CC5C(C)=CC(=O)C(O)C5(C)C23)OC(=O)C(OC(=O)C(C)(O)CC)C14 (configuration not stated)
inactive: endpoint: mean survival time, dose: 0.25 mg/kg/injection, schedule: Q01DX009 (ip), vehicle: saline + alcohol 98 % of control | endpoint: mean survival time, dose: 0.5 mg/kg/injection, schedule: Q01DX009 (ip), vehicle: saline + alcohol 100 % of control | endpoint: mean survival time, dose: 1.0 mg/kg/injection, schedule: Q01DX009 (ip), vehicle: saline + alcohol 102 % of control | endpoint: mean survival time, dose: 2.0 mg/kg/injection, schedule: Q01DX009 (ip), vehicle: saline + alcohol 90 % of control

O=C1OC(c2ccccc2)(c2ccccc2)C(=O)N1c1ccc(Br)cc1
inactive: endpoint: median survival time, dose: 3.13 mg/kg/injection, schedule: Q04DX002 (ip), vehicle: saline with Tween-80 100 % of control | endpoint: median survival time, dose: 6.25 mg/kg/injection, schedule: Q04DX002 (ip), vehicle: saline with Tween-80 100 % of control | endpoint: median survival time, dose: 12.5 mg/kg/injection, schedule: Q04DX002 (ip), vehicle: saline with Tween-80 111 % of control | endpoint: median survival time, dose: 25.0 mg/kg/injection, schedule: Q04DX002 (ip), vehicle: saline with Tween-80 111 % of control | [4] 94 % of control

COC(=O)N1CC=CCN1C(=O)OC
inactive: [12] 105 % of control | [13] 108 % of control | [14] 102 % of control

O=C(O)CC1NCCC12OCCO2 (configuration not stated)
inactive: [1] 97 % of control | [12] 98 % of control | [2] 102 % of control | [13] 98 % of control | [3] 92 % of control | [14] 101 % of control

C[N+](C)(C)C(C1=CCCC1=O)c1ccccc1 (configuration not stated)
inactive: endpoint: mean survival time, dose: 75.0 mg/kg/injection, schedule: Q01DX001 (ip), vehicle: saline 103 % of control | endpoint: mean survival time, dose: 150.0 mg/kg/injection, schedule: Q01DX001 (ip), vehicle: saline 91 % of control | endpoint: mean survival time, dose: 300.0 mg/kg/injection, schedule: Q01DX001 (ip), vehicle: saline 100 % of control

Source: PubChem BioAssay AID256 (DTP/NCI, 2004)
